Literature values as cited in patent US20210113461A1, “Methods of Treating Fungal Infections” (CIPLA TECHNOLOGIES LLC, priority 2018, published 2021).
Read-outs that look alike come from different tables or passages of the source.

Tests used:
[1] = oral solution

half-life at steady state [1]: 39.7 ± 13 h
steady-state AUC0-24h under fasted conditions as % of exposure under fed conditions [1]: 131±30%
mean AUC0-24h at steady-state ([1]; 200 mg daily dose, fasted): 29,271±10,285 ng·h/mL
mean Cmax at steady-state ([1]; 200 mg daily dose, fasted): 1,963±601 ng/mL
mean tmax at steady-state ([1]; 200 mg daily dose, fasted): 2.5 ± 0.8 h
increase of bioavailability under fasted conditions ([1]; healthy volunteers): 30%
bound by plasma protein (plasma protein; capsules): 99.6%
bound by plasma protein (plasma protein; oral solution): 99.8%
SMILES: CCC(C)n1ncn(-c2ccc(N3CCN(c4ccc(OCC5COC(Cn6cncn6)(c6ccc(Cl)cc6Cl)O5)cc4)CC3)cc2)c1=O (centres unmarked) [Itraconazole, itraconazole]
